Assay results as given in patent US20250177450A1, “METHODS FOR ADMINISTERING FREEZE-DRIED PLATELET DERIVATIVE COMPOSITIONS TO SUBJECTS TREATED WITH A FACTOR XI INHIBITOR” (Cellphire, Inc., priority 2021, published 2025).
Where two headings read alike, the source gives them in different places.

How the values were obtained:
[1] = system: occlusion of Platelet Rich Plasma (PRP)
Experimental: The T-TAS® instrument was prepared for use according to the manufacturer's instructions. AR Chips (Diapharma Cat. #TC0101) and AR Chip Calcium Corn Trypsin Inhibitor (CaCTI; Diapharma Cat. #TR0101) were warmed to room temperature. […] The sample was loaded and run on the T-TAS® according to the manufacturer's instructions.
The effect of cangrelor and ticagrelor on occlusion time of Platelet Rich Plasma (PRP) with and without FDPDs was assessed using the T-TAS® assay. The concentrations of the agents were as follows: cangrelor at 1 μM, ticagrelor at 500 ng/mL, FDPDs at 150 k/μL, and ADP at 2 μM. […] The number of trials per each assay is listed as the “(n=_)” values.

[2] = cited from earlier work
[3] = system: thrombus formation in GK PPP; assay: T-TAS AR chip, George King Platelet Poor Plasma with or without GPRP; format: biochemical, human; conditions: GK PPP + 1 mM GPRP (No Tsomes)
Experimental: In the Total Thrombus-formation Analysis System (T-TAS®, FUJIMORI KOGYO CO., LTD), the sample is forced through collagen-coated microchannels using mineral oil. Changes in pressure are used to assess thrombus formation. The Occlusion Start Time is time it takes to reach Δ10 kPa, and the Occlusion Time=time it takes to each Δ80 kPa using an AR chip (Zacros Item No, TC0101).
The effect of GPRP (1 mM) on occlusion activity was also assayed.

[4] = system: time to clot in pooled normal plasma; assay: Activated clotting time (ACT), heparin and protamine in pooled normal plasma; format: biochemical, human; conditions: heparin titration
Experimental: This experiment assessed how clinical proportions of Heparin and Protamine affect FDPD function. FDPDs were prepared according to the procedure in Example 18. An Activating Clotting Time (ACT) assay was performed to measure time to clot and TGA was performed to measure thrombin generation. An initial Heparin titration run was performed using ACT to find the minimum Heparin dose needed to reach abnormal clot time.
Activated clotting time was measured using pooled normal plasma with heparin (H) and protamine (P) as labeled on the x-axis; ½ P, P, and 3/2 P represent protamine doses of 4, 8, and 12 μg/ml, respectively. FDPDs, (referred to as “Tsomes” in FIG. 33) were added at 10, 25 or 50 K/μl. […] “K” in the legend stands for 10^3 FDPDS. All samples were run in duplicate. N=2. The experiment was repeated on separate days to improve statistical relevance.

[5] = system: thrombin generation in platelet rich plasma; assay: Thrombin generation assay in dabigatran-treated PRP; format: cell-based, human; conditions: dabigatran (100 ng/mL), PRP reagent; 18.89 untreated
Experimental: • (1) Open CAT software; set up instrument; and prepare PRP reagent (including Tissue Factor and some phospholipids), calibrator, and fluoro-buffer according to manufacturer guidelines. • (2) Thaw warfarin or control plasma in 37° C. water bath for 5 minutes. • (3) Rehydrate thrombosomes with cell culture grade water for 10 minutes then dilute with Control Buffer to double target concentration. • (4) For each sample, combine 1:1 volumes of Control Buffer with or without thrombosomes and plasma. • (5) Using a multichannel pipette, add 20 μL of PRP reagent to each well. • (6) Add 80 μL of sample per well.

[6] = system: NOD-SCID mice; assay: Tail snip bleeding time in clopidogrel-treated mice; format: in vivo, mouse; conditions: clopidogrel 5 mg/kg for 3 days, untreated 758.6+/−623.4
Experimental: Mice were treated with clopidogrel at 5 mg/kg for 3 days. The mice were anesthetized, the tail end was snipped off at 1 mm diameter and submerged in warm saline and time to clot recorded. Animals were syringe injected, into a vein or artery, with saline or 1.6×10^9/kg of FDPDs, at the same time the tail was snipped, and the tail snip trial commenced. The time from tail snip to tail stop bleeding was recorded by visual inspection of cessation of blood loss.

[7] = system: New Zealand White Rabbits; assay: Ear bleed time in clopidogrel-treated rabbits; format: in vivo, rabbit; conditions: clopidogrel 23 mg/kg for 5 days, untreated 87.1+/−18.2
Experimental: Rabbits were treated with clopidogrel at 23 mg/kg for 5 days. The rabbits were anesthetized, the ear was bled and time to clot recorded. Animals were treated, injected into a vein or artery, with saline or 1.6×10^9/kg of human FDPDs, at the same time the ear was bled, and the ear bleed trial commenced. The time from ear bleed to stop bleeding was recorded by visual inspection.

[8] = system: thrombus formation in whole blood; assay: T-TAS AR chip, rivaroxaban-anticoagulated whole blood; format: cell-based, human; conditions: 9 uM dose (a pharmacological dose)
Experimental: Rivaroxaban (sometimes herein called Riv) dose-response in whole blood was measured using T-TASR. An AR chip (Collagen+TF) was used. T-TAS® assays were performed according to Example 3. The donor platelets were used at 307 k/μL.
Thrombosomes were prepared consistent with the procedures described in U.S. Pat. No. 8,486,617 (such as, e.g., Examples 1-5) and U.S. Pat. No. 8,097,403 (such as, e.g., Examples 1-3), and rehydrated by addition of sterile water. T-TAS® assays were run according to Example 3 using 3 μM rivaroxaban and different concentrations of thrombosomes (FIG. 10A, Table 8). The ‘No Riv’ vertical line indicates the approximate occlusion time of a sample with no added rivaroxaban.

[9] = ADP (2 μM) stimulated PRP, cangrelor at 1 μM (n=4) or ticagrelor at 500 ng/mL (n=5), PRP alone 19.5±1.5

In the case of `CC(=O)Oc1ccccc1C(=O)O` [aspirin, Acetylsalicylic acid], the occlusion time ([1]; PRP at 30K/μL, aspirin at 500 μM, PRP alone 25:56) is listed as over 30 min, the peak concentration ([2]; single 500 mg dose IV) is listed as 500 µM and the peak concentration ([2]; single 500 mg dose orally) is listed as 44 µM.
In the case of GPRP, the “Area Under Curve” value [3] is reported as 52.43 and the “Occlusion Speed” value [3] is reported as 0 kPa/min.
Work on `CSCCNc1nc(SCCC(F)(F)F)nc2c1ncn2[C@@H]1O[C@H](COP(=O)(O)OP(=O)(O)C(Cl)(Cl)P(=O)(O)O)[C@@H](O)[C@H]1O` [cangrelor] yielded an occlusion time [1, 9] of 28.0 ± 3.0 min.
`CCCSc1nc(N[C@@H]2C[C@H]2c2ccc(F)c(F)c2)c2nnn([C@@H]3C[C@H](OCCO)[C@@H](O)[C@H]3O)c2n1` [ticagrelor] gave an occlusion time [1, 9] of 28.0 ± 3.0 min.
With Heparin the “minimum Heparin dose needed to reach abnormal clot formation” value [4] was 0.8 U/mL.
`[H]/N=C(/N)c1ccc(NCc2nc3cc(C(=O)N(CCC(=O)O)c4ccccn4)ccc3n2C)cc1` [dabigatran] gave a Time to peak [5] of 34.67 min.
In the case of `COC(=O)[C@H](c1ccccc1Cl)N1CCc2sccc2C1` [clopidogrel], the bleed time [6] is reported as 1661 ± 257.9 s and the bleed time [7] is reported as 206.8 ± 104.2 s.
For `O=C(NC[C@H]1CN(c2ccc(N3CCOCC3=O)cc2)C(=O)O1)c1ccc(Cl)s1` [Rivaroxaban], the “occlusion and thrombus formation” value [8] was “inhibits occlusion but not all thrombus formation”.
